Where two headings read alike, the source gives them in different places.
System: panel of hematologic and solid cancer lines
Test: 6-day in vitro growth/death assay
Assay type: cell-based, human
Conditions: read-out: gIC50
Protocol: To further develop these molecules and to guide clinical strategy, it was necessary to understand sensitivity in preclinical models by assessing the anti-tumour activity of the PRMT5 inhibitors in various cancers.
Cell lines were obtained from ATCC or DSMZ and were grown in recommended medium, which was most frequently RPMI-1640 containing 10% FBS. Cell line proliferation assays, Western blotting, qRT-PCR, and cell cycle analyses were performed as described previously[27],[28]. Antibody and gene expression reagents are as described in Supplementary Table 16. All studies were conducted in accordance with the GSK Policy on the Care, Welfare and Treatment of Laboratory Animals and were reviewed by the Institutional Animal Care and Use Committee either at GSK or by the ethical review process at the institution where the work was performed. Detailed descriptions of all methods can be found in the Supplemental Materials.

`O=C(NC[C@H](O)CN1CCc2ccccc2C1)c1ccnc(NC2CCC2)c1` [GSK3203591] showed an IC50 (Homo sapiens, NCI-H747, NCIH747) of 1500 nM, an IC50 (Homo sapiens, NCI-H1048, NCI-H1048) of 252 nM and an IC50 (Homo sapiens, NCI-H1299, NCI-H1299) of 419 nM. For the same compound, the IC50 (Homo sapiens, NCI-H1437, NCI-H1437) was 467 nM, the IC50 (Homo sapiens, NCI-H1563, NCI-H1563) was greater than 29300 nM and the IC50 (Homo sapiens, NCI-H1581, NCI-H1581) was 12800 nM. For the same compound, the IC50 (Homo sapiens, NCI-H1648, NCI-H1648) was 20700 nM, the IC50 (Homo sapiens, NCI-H1650, NCI-H1650) was 8770 nM and the IC50 (Homo sapiens, NCI-H1651, NCI-H1651) was 15300 nM. For the same compound, the IC50 (Homo sapiens, NCI-H1915, NCI-H1915) was 1130 nM, the IC50 (Homo sapiens, NCI-H1975, NCI-H1975) was 289 nM and the IC50 (Homo sapiens, NCI-H2087, NCI-H2087) was 510 nM. The IC50 (Homo sapiens, NCI-H2170, NCI-H2170) was 6390 nM, the IC50 (Homo sapiens, NKM-1) was 7.6 nM and the IC50 (Homo sapiens, NOMO-1, NOMO-1) was 7320 nM. It also gave an IC50 (Homo sapiens, NU-DHL-1, NU-DHL-1) of 101 nM, an IC50 (Homo sapiens, NU-DUL-1, NU-DUL-1) of 548 nM and an IC50 (Homo sapiens, OCI-AML-3, OCI-AML3) of 373 nM. For the same compound, the IC50 (Homo sapiens, OCI-AML-5, OCI-AML5) was 297 nM, the IC50 (Homo sapiens, OCI-LY19, OCI-LY-19) was 101 nM and the IC50 (Homo sapiens, OCI-Ly1, OCILY-1) was greater than 29300 nM. The IC50 (Homo sapiens, OCI-Ly3, OCI-LY3) was 1510 nM, the IC50 (Homo sapiens, OCI-Ly10, OCILY-10) was 4470 nM and the IC50 (Homo sapiens, OCI-Ly18, OCI-LY-18) was 30.8 nM. For the same compound, the IC50 (Homo sapiens, OCI-M1, OCI-M1) was 130 nM, the IC50 (Homo sapiens, OPM-2, OPM-2) was 40.2 nM and the IC50 (Homo sapiens, PANC-1, PANC-1) was 939 nM. The IC50 (Homo sapiens, PANC-03-27, PANC-03.27) was 2480 nM, the IC50 (Homo sapiens, PANC-08-13, PANC-08.13) was 136 nM and the IC50 (Homo sapiens, PC-3, PC-3) was 1890 nM. It also gave an IC50 (Homo sapiens, PC-9, PC9) of 95 nM, an IC50 (Homo sapiens, PER-403, PER-403) of 29.2 nM and an IC50 (Homo sapiens, PER-624) of 526 nM. The IC50 (Homo sapiens, PER-704) was 374 nM, the IC50 (Homo sapiens, PL-21, PL-21) was 329 nM and the IC50 (Homo sapiens, PSN1, PSN-1) was 504 nM. It also gave an IC50 (Homo sapiens, PaTu 8988t, PA-TU-8988T) greater than 29300 nM, an IC50 (Homo sapiens, Panc 02.03, PANC-02.03) of 1370 nM and an IC50 (Homo sapiens, Panc 04.03, PANC-04.03) of 622 nM. For the same compound, the IC50 (Homo sapiens, Panc1005, PANC-10.05) was 2080 nM, the IC50 (Homo sapiens, Pfeiffer) was 352 nM and the IC50 (Homo sapiens, RCK8, RCK8) was 2110 nM. The IC50 (Homo sapiens, RIVA) was 68.4 nM, the IC50 (Homo sapiens, RKO) was 2210 nM and the IC50 (Homo sapiens, RL) was 1430 nM. For the same compound, the IC50 (Homo sapiens, RPMI-6666, RPMI-6666) was 2710 nM, the IC50 (Homo sapiens, RPMI-8226, RPMI-8226) was 135 nM and the IC50 (Homo sapiens, RPMI-8226-DOX) was 204 nM. The IC50 (Homo sapiens, RPMI-8226-LR5) was 303 nM, the IC50 (Homo sapiens, RPMI-8226-MR20) was 384 nM and the IC50 (Homo sapiens, RT-112, RT-112) was 1110 nM. For the same compound, the IC50 (Homo sapiens, RVH-421, RVH-421) was greater than 29300 nM, the IC50 (Homo sapiens, Rec1, REC-1) was 1990 nM and the IC50 (Homo sapiens, SC-1, SC-1) was 117 nM. The IC50 (Homo sapiens, SCaBER) was 255 nM, the IC50 (Homo sapiens, SF-126, SF-126) was 386 nM and the IC50 (Homo sapiens, SF-295, SF295) was 9840 nM. For the same compound, the IC50 (Homo sapiens, SF-539, SF539) was 75 nM, the IC50 (Homo sapiens, SH-4, SH-4) was 2560 nM and the IC50 (Homo sapiens, SHI-1) was 358 nM. For the same compound, the IC50 (Homo sapiens, SIG-M5, SIG-M5) was 316 nM, the IC50 (Homo sapiens, SK-BR-3, SK-BR-3) was 132 nM and the IC50 (Homo sapiens, SK-CO-1, SK-CO-1) was 473 nM. For the same compound, the IC50 (Homo sapiens, SK-LU-1, SK-LU-1) was 881 nM, the IC50 (Homo sapiens, SK-MEL-5, SK-MEL-5) was 111 nM and the IC50 (Homo sapiens, SK-MES-1, SK-MES-1) was 18500 nM. It also gave an IC50 (Homo sapiens, SK-MM-2, SK-MM-2) of 1260 nM, an IC50 (Homo sapiens, SK-NEP-1, SK-NEP-1) of 2240 nM and an IC50 (Homo sapiens, SK-UT-1, SK-UT-1) of 393 nM. It also gave an IC50 (Homo sapiens, SKM-1, SKM-1) of 110 nM, an IC50 (Homo sapiens, SKNO-1, SKNO-1) of 563 nM and an IC50 (Homo sapiens, SNU-16, SNU16) of 175 nM. It also gave an IC50 (Homo sapiens, SNU-C1, SNUC1) of 1520 nM, an IC50 (Homo sapiens, SR-786, SR-786) of 32.8 nM and an IC50 (Homo sapiens, SU-DHL10, SU-DHL-10) of 495 nM. The IC50 (Homo sapiens, SU-DHL-2, SU-DHL-2) was 86 nM, the IC50 (Homo sapiens, SU-DHL-4, SU-DHL-4) was 571 nM and the IC50 (Homo sapiens, SU-DHL-5, SU-DHL-5) was 132 nM. The IC50 (Homo sapiens, SU-DHL-6, SU-DHL-6) was 12.9 nM, the IC50 (Homo sapiens, SU-DHL-8, SU-DHL-8) was 1220 nM and the IC50 (Homo sapiens, SU-DHL-16, SU-DHL-16) was 124 nM. The IC50 (Homo sapiens, SW48, SW48) was 9340 nM, the IC50 (Homo sapiens, SW480, SW480) was 2260 nM and the IC50 (Homo sapiens, SW780, SW-780) was 450 nM. It also gave an IC50 (Homo sapiens, SW837, SW837) of 9150 nM, an IC50 (Homo sapiens, SW900, SW900) of 7970 nM and an IC50 (Homo sapiens, SW982, SW982) of 369 nM. It also gave an IC50 (Homo sapiens, SW1271, SW1271) of 3180 nM, an IC50 (Homo sapiens, SW1417, SW-1417) of 19600 nM and an IC50 (Homo sapiens, SW1573, SW1573) of 11400 nM. The IC50 (Homo sapiens, SW1710, SW-1710) was 10000 nM, the IC50 (Homo sapiens, SW1990, SW-1990) was 125 nM and the IC50 (Homo sapiens, SW-403, SW403) was 9760 nM. For the same compound, the IC50 (Homo sapiens, SW-620, SW620) was 1350 nM, the IC50 (Homo sapiens, T47D, T-47D) was 225 nM and the IC50 (Homo sapiens, T84, T84) was 1680 nM. It also gave an IC50 (Homo sapiens, T98MG) of 1300 nM, an IC50 (Homo sapiens, T-24, T24) of 650 nM and an IC50 (Homo sapiens, TCC-SUP, TCCSUP) of 11200 nM. The IC50 (Homo sapiens, TF-1, TF-1) was 138 nM, the IC50 (Homo sapiens, THP-1, THP-1) was 951 nM and the IC50 (Homo sapiens, Toledo) was 443 nM. The IC50 (Homo sapiens, U138-MG, U138MG) was greater than 29300 nM, the IC50 (Homo sapiens, U266B1) was 652 nM and the IC50 (Homo sapiens, U2932, U2932) was 336 nM. It also gave an IC50 (Homo sapiens, U-87 MG) of 128 nM, an IC50 (Homo sapiens, U-251, U251MG) of 3490 nM and an IC50 (Homo sapiens, U-937, U937) of 48.6 nM. The IC50 (Homo sapiens, U-2940, U2940) was 2350 nM, the IC50 (Homo sapiens, UMC-11, UMC11) was 10700 nM and the IC50 (Homo sapiens, UMUC3, UM-UC-3) was 19200 nM. For the same compound, the IC50 (Homo sapiens, VCaP) was greater than 29300 nM, the IC50 (Homo sapiens, VM-CUB-1, VM-CUB1) was 1580 nM and the IC50 (Homo sapiens, WM 266-4, WM-266-4) was 17200 nM. For the same compound, the IC50 (Homo sapiens, WSU-FSCCL) was 268 nM, the IC50 (Homo sapiens, WSU-NHL) was 75.7 nM and the IC50 (Homo sapiens, WSUDLCL2, WSU-DLCL2) was 652 nM. The IC50 (Homo sapiens, WiDr) was 438 nM, the IC50 (Homo sapiens, YH13) was greater than 29300 nM and the IC50 (Homo sapiens, YKG-1, YKG1) was 254 nM. The IC50 (Homo sapiens, Z-138, Z-138) was 13.6 nM, the IC50 (Homo sapiens, ZR-75-1, ZR-75-1) was 2620 nM and the IC50 (Homo sapiens, majority (147/276) of cell lines) was less than 1000 nM. The IC50 (J82) was 20900 nM, the IC50 (JM1) was 76 nM and the IC50 (JVM-2) was 172 nM. It also gave an IC50 (JeKo-1) of 6190 nM, an IC50 (LN-229) of 1150 nM and an IC50 (MAVER-1) of 133 nM. It also gave an IC50 (MCF-7) of 215 nM, an IC50 (MDA-MB-231) of 2930 nM and an IC50 (MINO) of 536 nM. For the same compound, the IC50 (NCI-H526-R) was 219 nM, the IC50 (NCI-H526) was 138 nM and the IC50 (PER-403) was 29 nM. The IC50 (PER-624) was 526 nM, the IC50 (PER-704) was 375 nM and the IC50 (Pfeiffer) was 352 nM. The IC50 (RCK8) was 2110 nM, the IC50 (REC-1) was 1990 nM and the IC50 (RIVA) was 68 nM. The IC50 (RL) was 1430 nM, the IC50 (SF295) was 9840 nM and the IC50 (SK-BR-3) was 131 nM. For the same compound, the IC50 (SU-DHL-4) was 571 nM, the IC50 (SU-DHL-5) was 132 nM and the IC50 (SU-DHL-6) was 13 nM. The IC50 (SU-DHL-8) was 1220 nM, the IC50 (SU-DHL-10) was 495 nM and the IC50 (SU-DHL-16) was 124 nM. It also gave an IC50 (SW-780) of 451 nM, an IC50 (T24) of 650 nM and an IC50 (U251MG) of 3490 nM. For the same compound, the IC50 (U937) was 49 nM, the IC50 (U2932) was 336 nM and the IC50 (U2940) was 2350 nM. The IC50 (U-87MG) was 127 nM, the IC50 (UM-UC-3) was 19200 nM and the IC50 (WSU-DLCL2) was 651 nM. For the same compound, the IC50 (Z-138) was 14 nM and the IC50 (ZR-75-1) was 2620 nM.

Source: paper PMC6018746, “Activation of the p53-MDM4 regulatory axis defines the anti-tumour response to PRMT5 inhibition through its role in regulating cellular splicing” (Scientific Reports, 2018)
